From article PMC6218115, “In Vitro Potency and Preclinical Pharmacokinetic Comparison of All-D-Enantiomeric Peptides Developed for the Treatment of Alzheimer’s Disease” (Journal of Alzheimer's Disease, 2018)
Like-named read-outs stand apart in the source and are kept apart here. Non-standard residues stand in square brackets, D forms with d. Residues, ends and D or L forms follow the SMILES beside them.

What was measured:
Aβ1-42 = molecular target: T1, Aβ1-42 (Homo sapiens, UniProt P05067); assay: Aβ aggregation assay (Thioflavin T); assay type: biochemical; details: for molar excess with regard to Aβ for complete inhibition of Aβ1-42 fibril formation: 10 μM Aβ1-42, ThT; for reduction of the aggregation amplitude: equimolar concentration of peptide relative to Aβ1-42 (10 μM)
T1 construct: Lyophilized Aβ1 - 42 was dissolved in the respective peptide solution; purchased Isoloid GmbH (recombinant) or Bachem AG (synthetic)
Description: The potencies of ANK6, tANK6, cANK6r, and D3 to inhibit Aβ1 - 42 aggregation was examined using Thioflavin T (ThT). For this purpose, a buffer solution composed of 20 mM sodium phosphate buffer (pH 7.4) including 50 mM sodium chloride, and 5μM ThT was prepared. Afterwards, ANK6, tANK6, cANK6r, or D3 were diluted in this solution, respectively, to final peptide concentrations between 0.3125 and 80μM (ANK6 and tANK6:0.3125, 0.625, 1.25, 2.5, 5, 10, 20μM; cANK6r: 1.25, 2.5, 5, 10, 20, 40, 80μM; D3:1.17, 2.34, 4.7, 9.4, 18.8, 37.5, 75μM).
The buffer solution only served as negative control (blank). Lyophilized Aβ1 - 42 was dissolved in the respective peptide solution to a final concentration of 10μM. D-peptide solutions with the highest concentration of the respective D-peptide containing all components, except of Aβ1 - 42, served as negative controls. Aβ1 - 42 solved in buffer solution without D-peptide served as positive control. 100μL of each solution were transferred into the wells (triplicates) of 96 well microplates (PS, black, non-binding from Greiner Bio-One, Germany) and fluorescence signals (excitationλ 440 nm, emissionλ 490 nm) were measured in a Polarstar Optima plate reader (BMG, Germany) at 37°C every 20 min for 70 h. Afterwards, the respective blank curves were subtracted from each aggregation curve to exclude background fluorescence. […] The half maximal inhibitory concentration (IC50 value) was determined by plotting the percent inhibition against the respective D-peptides’ concentrations. Datasets were fitted by nonlinear regression (one site – specific binding with Hill slope, GraphPad Prism 5).

[1] = Plasma protein binding, TRANSIL XL AGP binding kit; assay type: in vitro ADME, human; details: TRANSIL XL AGP beads 0.04-3 μM, 5 μM peptide (3H-labelled + non-labelled), LSC read-out, nonlinear regression
Description: Plasma protein binding (PPB) to human serum albumin (HSA) and α1-acid glycoprotein (AGP) of ANK6, tANK6, and cANK6r was analyzed according to the manufacturer’s protocol of TRANSIL^XL HSA and AGP binding kits (Sovicell GmbH, Germany). To cover a larger range of HSA and AGP concentrations, the bead concentrations in the kit were modified. For detection, a mixture of ^3H-labelled and non-labelled ANK6, tANK6, and cANK6r (final concentrations of 5μM) was added to different concentrations of HSA (7.4μM to 420μM, 10–12 different concentrations) or AGP beads (0.04μM to 3μM, 9–12 different concentrations). The amount of unbound ANK6, tANK6, and cANK6r (in %) to HSA or AGP, respectively, was determined by liquid scintillation counter (LSC) measurements. The dissociation constants (KD) as well as the free drug fractions (fu) in human plasma were calculated as described before. Calculations were based on peptide concentrations detected in the blood 4 h after single oral administration of 10 mg/kg: 0.01μM ANK6, 0.01μM tANK6, and 0.01μM cANK6r.

[2] = Cell viability assay (MTT), Aβ1-42-induced cytotoxicity; assay type: cell-based, rat
Description: The cells (10,000 cells/well) were incubated on collagen coated 96 well plates (Gibco, Life Technologies, # A11428-03) for growth in adherent cell culture (24 h, 37°C). Oligomeric Aβ was generated by incubating monomeric Aβ1 - 42 in sodium phosphate buffer (10 mM Na2HPO4/NaH2PO4, pH 7.4) at 21°C and 600 rpm agitation for 4.5 h. […] Absorbance readout was detected with a Polarstar Optima plate reader (BMG, Germany) at 570 and 660 nm. The relative cell viability [%] was calculated by normalizing the absorbance readout to the positive control (PC12 cells incubated with buffer). The IC50 value was determined by plotting the relative cell viability [%] against the respective D-peptides' concentrations. Datasets were fitted by nonlinear regression (logistic fit; OriginPro 9.0G).

[3] = Blood-brain barrier values (logBB, Kin, Vi, PS); assay type: in vivo, C57Bl/6N mice; details: mice; for logBB, blood-brain equilibrium distribution: after i.v. administration 3.3 mg/kg, log(AUClast,br/AUClast,pl); for PS, permeability surface-area product / Vin / Kin, unidirectional influx rate constant: after i.v. administration; for PS, permeability surface-area product: CBF 1.07 mL/(g*min); for Vin: graphical determination (initial distribution volume in brain); for Kin, unidirectional influx rate constant: graphical determination, linear range 0-240 min (ANK6, cANK6r), 0-1440 min (tANK6)
Description: To allow for direct comparison with other peptides, four universally applied BBB parameters were determined: the blood-brain equilibrium distribution (logBB), the […] influx rate constant (Kin), the initial distribution volume in brain (Vi), and the permeability surface-area product (PS). Based on data of the concentration-time profiles and pharmacokinetic parameters after i.v. administration, the BBB parameters were calculated with the help of the formulas listed in Table 2. Graphical determination of Kin and Vi was conducted by plotting the brain concentration to plasma concentration ratio at certain time points (Cb (t)/Cp (t) [mL/g]) on the y-axis against the exposure time (AUCp (t)/Cp (t) [min]) on the x-axis. The linear range for Kin and Vi determination was between 0 and 240 min for ANK6 and cANK6r (R^2: 0.9970, 0.9996) and between 0 and 1440 min for tANK6 (R^2: 0.9758). PS was calculated on the basis of a murine cerebral blood flow (CBF) of 1.07 mL/(g*min).

[4] = 10 μM Aβ1-42, 5 μM ThT, 20 mM sodium phosphate pH 7.4, 50 mM NaCl, 37°C, 70 h, triplicates, nonlinear regression, read-out: IC50, inhibition of Aβ1-42 aggregation into ThT-positive fibrils

T1 sequence (P05067 672-713 limits assumed): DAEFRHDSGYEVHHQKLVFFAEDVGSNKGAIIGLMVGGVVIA

Compound | IC50 (Aβ1-42) [µM] | molar excess with regard to Aβ for complete inhibition of Aβ1-42 fibril formation (Aβ1-42) | reduction of the aggregation amplitude (Aβ1-42) | Kd [1] [µM] | IC50 ([2]; PC12 cells, MTT, 1 μM oligomeric Aβ1-42, peptide 0.008-15 μM, overnight 37°C, quintuplicates, logistic fit, read-out: IC50, reduction of Aβ1-42-induced cytotoxicity (cell viability)) [µM] | logBB, blood-brain equilibrium distribution [3] | PS, permeability surface-area product [3] [mL/g/min] | Vin [3] [mL/g] | Kin, unidirectional influx rate constant [3] [mL/g/min] | IC50 (Aβ1-42; [4]) [µM] | IC50 [2] [µM]
CC[C@@H](C)[C@@H](NC(=O)[C@@H](CCCNC(=N)N)NC(=O)[C@@H](CCCCN)NC(=O)[C@H](N)CCCNC(=N)N)C(=O)N[C@H](CCCNC(=N)N)C(=O)N[C@H](CC(C)C)C(=O)N[C@@H](C(=O)N[C@@H](C(=O)N[C@H](CCCCN)C(=O)N[C@H](CCCCN)C(=O)N[C@H](CCCCN)C(=O)N[C@H](CCCNC(=N)N)C(N)=O)[C@H](C)O)C(C)C [ANK6] (H-[dR][dK][dR][dI][dR][dL][dV][dT][dK][dK][dK][dR]-NH2; N-terminus assumed) | 3.6 | two-fold molar excess | more than 97% | 0.29 | 11.2 | –0.401 | 0.0003 | 0.0575 | 0.0003 | – | –
CC[C@@H](C)[C@H]1NC(=O)[C@@H](CCCNC(=N)N)NC(=O)[C@@H](CCCCN)NC(=O)[C@@H](CCCNC(=N)N)NC(=O)[C@@H](CCCNC(=N)N)NC(=O)[C@@H](CCCNC(=N)N)NC(=O)[C@@H](CCCCN)NC(=O)[C@@H](CCCCN)NC(=O)[C@@H](CCCCN)NC(=O)[C@@H]([C@H](C)O)NC(=O)[C@@H](C(C)C)NC(=O)[C@@H](CC(C)C)NC(=O)[C@@H](CCCNC(=N)N)NC1=O [cANK6r] (cyclo([dR][dK][dR][dI][dR][dL][dV][dT][dK][dK][dK][dR][dR])) | – | about eight-fold molar excess | – | 0.28 | – | –0.329 | 0.0003 | 0.0396 | 0.0003 | 3.7 | 14
CC[C@@H](C)[C@@H](NC(=O)[C@@H](CCCNC(=N)N)NC(=O)[C@@H](CCCCN)NC(=O)[C@H](N)CCCNC(=N)N)C(=O)N[C@H](CCCNC(=N)N)C(=O)N[C@H](CC(C)C)C(=O)N[C@@H](C(=O)N[C@@H](C(=O)N[C@H](CCCCN)C(=O)N[C@H](CCCCN)C(=O)N[C@H](CCCCN)C(=O)N[C@H](CCCNC(=N)N)C(=O)N[C@H](CCCNC(=N)N)C(=O)N[C@H](CCCCN)C(=O)N[C@H](CCCNC(=N)N)C(=O)N[C@@H](C(=O)N[C@H](CCCNC(=N)N)C(=O)N[C@H](CC(C)C)C(=O)N[C@@H](C(=O)N[C@@H](C(=O)N[C@H](CCCCN)C(=O)N[C@H](CCCCN)C(=O)N[C@H](CCCCN)C(=O)N[C@H](CCCNC(=N)N)C(N)=O)[C@H](C)O)C(C)C)[C@H](C)CC)[C@H](C)O)C(C)C [tANK6] (H-[dR][dK][dR][dI][dR][dL][dV][dT][dK][dK][dK][dR][dR][dK][dR][dI][dR][dL][dV][dT][dK][dK][dK][dR]-NH2; N-terminus assumed) | – | two-fold molar excess | more than 97% | 0.06 | – | 0.335 | 0.0016 | 0.5833 | 0.0016 | 2.1 | 4.4
